15 compounds from PubChem BioAssay AID256 (DTP/NCI, 2004) can be followed below.

Values joined by “and” are separate entries in the source; they are usually repeats but may differ in a detail not shown here. Equal values may be shown once. Toxic doses and inconclusive results are not listed.

The subject of the assay is CD2F1 mice, L1210 leukemia ip, survival T/C. Kind of assay: NCI In Vivo Anticancer Drug Screen. Data for tumor model L1210 Leukemia (intraperitoneal) in CD2F1 (CDF1) mice. Particulars: higher = longer survival. A digest of the protocol: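 Vehicle-treated tumor-bearing mice served as controls (C) for compound-treated mice (T). Reported figure is T divided by C.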
Setting [1] is: endpoint: mean survival time, dose: 50.0 mg/kg/injection, schedule: Q01DX009 (ip), vehicle: saline with Tween-80.
Setting [2] is: endpoint: mean survival time, dose: 100.0 mg/kg/injection, schedule: Q01DX009 (ip), vehicle: saline with Tween-80.
The mark [3] stands for this setting: endpoint: mean survival time, dose: 200.0 mg/kg/injection, schedule: Q01DX009 (ip), vehicle: saline with Tween-80.
The mark [4] stands for this setting: endpoint: mean survival time, dose: 25.0 mg/kg/injection, schedule: Q04DX003 (ip), vehicle: saline with Tween-80.
Where [5] appears, read: endpoint: mean survival time, dose: 100.0 mg/kg/injection, schedule: Q04DX003 (ip), vehicle: saline with Tween-80.
Where [6] appears, read: endpoint: mean survival time, dose: 200.0 mg/kg/injection, schedule: Q04DX003 (ip), vehicle: saline with Tween-80.
The mark [7] stands for this setting: endpoint: mean survival time, dose: 400.0 mg/kg/injection, schedule: Q01DX009 (ip), vehicle: saline with Tween-80.
Where [8] appears, read: endpoint: mean survival time, dose: 400.0 mg/kg/injection, schedule: Q04DX003 (ip), vehicle: saline with Tween-80.

Take `CCN(CC)CCCNc1nccc2c(C)c3[nH]c4ccncc4c3cc12`: the T/C was 124 % of control (endpoint: median survival time, dose: 5.0 mg/kg/injection, schedule: Q01DX001 (ip), vehicle: other); 157 % of control (endpoint: median survival time, dose: 10.0 mg/kg/injection, schedule: Q01DX001 (ip), vehicle: other); 175 % of control (endpoint: median survival time, dose: 20.0 mg/kg/injection, schedule: Q01DX001 (ip), vehicle: other).
As to `O=C(Oc1ccccc1/C=C/[n+]1ccccc1)c1ccccc1`, the T/C reads like this: under setting [1], 92 % of control; under setting [2], 100 % of control; under setting [3], 96 % of control.
Turning to `[Cl][Pt+2][Cl].[NH-]CCN(CCN)CCN`, the T/C was 97 % of control (endpoint: mean survival time, dose: 12.5 mg/kg/injection, schedule: Q04DX003 (ip), vehicle: saline with Tween-80) and 98 % of control under setting [4].
For `COc1ccc(P(=S)(S)c2ccc(OC)cc2)cc1`, the T/C reads like this: (endpoint: mean survival time, dose: 80.5 mg/kg/injection, schedule: Q01DX009 (ip), vehicle: saline with Tween-80) 95 % of control; (endpoint: mean survival time, dose: 161.0 mg/kg/injection, schedule: Q01DX009 (ip), vehicle: saline with Tween-80) 93 % of control; (endpoint: mean survival time, dose: 322.0 mg/kg/injection, schedule: Q01DX009 (ip), vehicle: saline with Tween-80) 93 % of control.
For the compound `CN(C)C(=O)C1C2CCCC(CC2)C1C(=O)N(C)C` (stereo not drawn), the T/C is 100 % of control (endpoint: mean survival time, dose: 100.0 mg/kg/injection, schedule: Q04DX002 (ip), vehicle: saline); 91 % of control (endpoint: mean survival time, dose: 200.0 mg/kg/injection, schedule: Q04DX002 (ip), vehicle: saline); 95 % of control (endpoint: mean survival time, dose: 400.0 mg/kg/injection, schedule: Q04DX002 (ip), vehicle: saline).
As for `O=c1ccc2nc3ccccc3sc-2c1`, the T/C is, setting by setting: (endpoint: mean survival time, dose: 25.0 mg/kg/injection, schedule: Q01DX009 (ip), vehicle: Klucel (hydroxypropylcellulose) (HPC)) 106 % of control; (endpoint: mean survival time, dose: 50.0 mg/kg/injection, schedule: Q01DX009 (ip), vehicle: Klucel (hydroxypropylcellulose) (HPC)) 103 % of control; under setting [1], 97 % of control; (endpoint: mean survival time, dose: 100.0 mg/kg/injection, schedule: Q01DX009 (ip), vehicle: Klucel (hydroxypropylcellulose) (HPC)) 108 % of control; (endpoint: mean survival time, dose: 200.0 mg/kg/injection, schedule: Q01DX009 (ip), vehicle: Klucel (hydroxypropylcellulose) (HPC)) 98 % of control.
Regarding `Cc1cccc(/C=N\N=C\c2cccc(C)n2)n1`, the T/C reads like this: under setting [2], 96 % of control; under setting [5], 95 % of control; under setting [3], 90 % of control; under setting [6], 91 % of control; under setting [7], 98 % of control; under setting [8], 107 % of control.
On to `Nc1nc(=S)c2[nH]c(-c3ccccc3)nc2[nH]1`, for which the T/C is 96 % of control (endpoint: mean survival time, dose: 12.5 mg/kg/injection, schedule: Q01DX005 (ip), vehicle: other); 90 % of control (endpoint: mean survival time, dose: 25.0 mg/kg/injection, schedule: Q01DX005 (ip), vehicle: other); 93 % of control (endpoint: mean survival time, dose: 50.0 mg/kg/injection, schedule: Q01DX005 (ip), vehicle: other); 93 % of control (endpoint: mean survival time, dose: 100.0 mg/kg/injection, schedule: Q01DX005 (ip), vehicle: other); 90 % of control (endpoint: mean survival time, dose: 200.0 mg/kg/injection, schedule: Q01DX005 (ip), vehicle: other).
In the case of `C=CN1C(=O)NC(C)(CC(C)C)C1=O` (stereo not drawn), the T/C is, setting by setting: under setting [5], 94 % of control; under setting [6], 92 % of control; under setting [8], 102 % of control.
For `O=C(NC(C(=O)O)c1ccccc1)OCc1ccccc1` (stereo not drawn), in that order: 102 % of control, 107 % of control and 97 % of control.
As for `O=C(O)CSCC(=O)c1ccccc1`, the T/C is, setting by setting: under setting [2], 98 % of control; under setting [5], 94 % of control; under setting [3], 100 % of control; under setting [6], 98 % of control; under setting [7], 98 % of control; under setting [8], 102 % of control.
For `CC(C)NC(=O)OCc1c(COC(=O)NC(C)C)c(-c2ccc(Cl)c(Cl)c2)n2c1CCC2`, the T/C runs as follows: (endpoint: mean survival time, dose: 6.25 mg/kg/injection, schedule: Q01DX009 (ip), vehicle: distilled water + Tween-80) 115 % of control; (endpoint: mean survival time, dose: 6.25 mg/kg/injection, schedule: Q01DX009 (ip), vehicle: saline with Tween-80) 103 % of control; (endpoint: mean survival time, dose: 12.5 mg/kg/injection, schedule: Q01DX009 (ip), vehicle: distilled water + Tween-80) 118 % of control; (endpoint: mean survival time, dose: 12.5 mg/kg/injection, schedule: Q01DX009 (ip), vehicle: saline with Tween-80) 116 % of control; (endpoint: mean survival time, dose: 25.0 mg/kg/injection, schedule: Q01DX009 (ip), vehicle: saline with Tween-80) 121 % of control; under setting [2], 89 % of control. For the same compound, the T/C reads like this: (endpoint: median survival time, dose: 50.0 mg/kg/injection, schedule: Q01DX005 (ip), vehicle: saline with Tween-80) 151 % of control; (endpoint: median survival time, dose: 100.0 mg/kg/injection, schedule: Q01DX005 (ip), vehicle: saline with Tween-80) 179 % of control; (endpoint: median survival time, dose: 200.0 mg/kg/injection, schedule: Q01DX005 (ip), vehicle: saline with Tween-80) 190 % of control; (endpoint: median survival time, dose: 800.0 mg/kg/injection, schedule: Q01DX005 (ip), vehicle: saline with Tween-80) 102 % of control.
Take `COc1cccc2c1C(=O)c1c(O)c3c(c(O)c1C2=O)CC(O)(/C(C)=N/NC(=O)CCC(=O)N/N=C(\C)C1(O)Cc2c(O)c4c(c(O)c2C(OC2CC(N)C(O)C(C)O2)C1)C(=O)c1c(OC)cccc1C4=O)CC3OC1CC(N)C(O)C(C)O1` (stereo not drawn): the T/C (endpoint: mean survival time, dose: 0.39 mg/kg/injection, schedule: Q01DX009 (ip), vehicle: water) was 102 % of control; the T/C (endpoint: mean survival time, dose: 0.78 mg/kg/injection, schedule: Q01DX009 (ip), vehicle: water) was 106 % of control; the T/C (endpoint: mean survival time, dose: 1.56 mg/kg/injection, schedule: Q01DX009 (ip), vehicle: water) was 113 % of control and 101 % of control; the T/C (endpoint: mean survival time, dose: 3.13 mg/kg/injection, schedule: Q01DX009 (ip), vehicle: water) is 106 % of control and 111 % of control; the T/C (endpoint: mean survival time, dose: 6.25 mg/kg/injection, schedule: Q01DX009 (ip), vehicle: water) was 118 % of control; the T/C (endpoint: mean survival time, dose: 12.5 mg/kg/injection, schedule: Q01DX009 (ip), vehicle: water) was 150 % of control. In addition, where the note is “endpoint: mean survival time, dose: 25.0 mg/kg/injection, schedule: Q01DX009 (ip), vehicle: water”, the T/C is 111 % of control.
For `COc1ccc(CC2C(=O)NC(C)C(=O)N(C)C3C(=O)N(C)C(Cc4ccc(O)c(c4)Oc4ccc(cc4)C3O)C(=O)NC(C)C(=O)NC(C)C(=O)N2C)cc1` (stereo not drawn), the T/C is 106 % of control (endpoint: mean survival time, dose: 0.06 mg/kg/injection, schedule: Q01DX009 (ip), vehicle: saline); 113 % of control and 102 % of control and 104 % of control (endpoint: mean survival time, dose: 0.12 mg/kg/injection, schedule: Q01DX009 (ip), vehicle: saline); 113 % of control and 110 % of control (endpoint: mean survival time, dose: 0.25 mg/kg/injection, schedule: Q01DX009 (ip), vehicle: Klucel (hydroxypropylcellulose) (HPC)); 114 % of control and 97 % of control and 108 % of control (endpoint: mean survival time, dose: 0.25 mg/kg/injection, schedule: Q01DX009 (ip), vehicle: saline); 113 % of control and 103 % of control (endpoint: mean survival time, dose: 0.5 mg/kg/injection, schedule: Q01DX009 (ip), vehicle: Klucel (hydroxypropylcellulose) (HPC)); 104 % of control and 109 % of control (endpoint: mean survival time, dose: 0.5 mg/kg/injection, schedule: Q01DX009 (ip), vehicle: saline). The T/C reads like this: (endpoint: mean survival time, dose: 1.0 mg/kg/injection, schedule: Q01DX009 (ip), vehicle: Klucel (hydroxypropylcellulose) (HPC)) 113 % of control and 110 % of control; (endpoint: mean survival time, dose: 1.0 mg/kg/injection, schedule: Q01DX009 (ip), vehicle: saline) 113 % of control and 114 % of control and 110 % of control; (endpoint: mean survival time, dose: 2.0 mg/kg/injection, schedule: Q01DX009 (ip), vehicle: Klucel (hydroxypropylcellulose) (HPC)) 113 % of control and 111 % of control; (endpoint: mean survival time, dose: 2.0 mg/kg/injection, schedule: Q01DX009 (ip), vehicle: saline) 116 % of control and 123 % of control; (endpoint: mean survival time, dose: 4.0 mg/kg/injection, schedule: Q01DX009 (ip), vehicle: Klucel (hydroxypropylcellulose) (HPC)) 119 % of control; (endpoint: mean survival time, dose: 4.0 mg/kg/injection, schedule: Q01DX009 (ip), vehicle: saline) 88 % of control and 96 % of control.
On to `O=C(NC/C=C/Br)Nc1cnc2ccccc2c1`, for which the T/C is, setting by setting: under setting [4], 102 % of control; (endpoint: mean survival time, dose: 50.0 mg/kg/injection, schedule: Q04DX003 (ip), vehicle: saline with Tween-80) 93 % of control.
